The text below walks through data of ChEMBL document CHEMBL1142139, “In vitro-clinical correlations for amphotericin B susceptibility in AIDS-associated cryptococcal meningitis” (2007).

This assay deals with Cryptococcus neoformans. The assay is described as follows: Antimicrobial activity against Cryptococcus neoformans isolates in CSF from meningitis patients after 14 day iv treatment. In kind it is functional.

Consider `C[C@@H]1[C@H](O)[C@@H](C)/C=C/C=C/C=C/C=C/C=C/C=C/C=C/[C@H](O[C@@H]2O[C@H](C)[C@@H](O)[C@H](N)[C@@H]2O)C[C@@H]2O[C@](O)(C[C@@H](O)C[C@@H](O)[C@H](O)CC[C@@H](O)C[C@@H](O)CC(=O)O[C@H]1C)C[C@H](O)[C@H]2C(=O)O` [AMPHOTERICIN B], for which the CFU/ml is on record as 0.
